The record followed here is US9670209B2 (ACADIA Pharmaceuticals Inc., priority 2013, dated 2017).

In assay [1] the target is human M1 muscarinic acetylcholine receptor (Homo sapiens (Human), UniProt P11229). Description: R-SAT (Receptor Selection and Amplification) assay, M1. It counts as cell-based. Conditions: for M1 PEC50 AVG: NIH-3T3 cells; for Emax: percent efficacy vs carbachol = 100 percent, read-out: M1 EFF % AVG. As to the method: (§1) Briefly, NIH-3T3 cells were grown in 96-well tissue culture plates to 70% to 80% confluence. Cells were transfected with plasmid DNAs using Superfect Reagent (QIAGEN, Valencia, Calif.) as per the manufacturer's protocols. […] Cells were then grown in a humidified atmosphere with 5% ambient CO2 for 4 to 6 days. Media were then removed from the plates, and beta-galactosidase activity was measured by the addition of o-nitrophenyl-D-galactopyranoside (in phosphate-buffered saline with 5% NP-40 detergent). […] All data represent the mean of three wells and were analyzed using the computer program Excel Fit, and EC50 determinations were made using least-squares fit analysis with GraphPad Software Inc. (San Diego, Calif.) software.
human M1 muscarinic acetylcholine receptor, sequence (P11229 whole entry): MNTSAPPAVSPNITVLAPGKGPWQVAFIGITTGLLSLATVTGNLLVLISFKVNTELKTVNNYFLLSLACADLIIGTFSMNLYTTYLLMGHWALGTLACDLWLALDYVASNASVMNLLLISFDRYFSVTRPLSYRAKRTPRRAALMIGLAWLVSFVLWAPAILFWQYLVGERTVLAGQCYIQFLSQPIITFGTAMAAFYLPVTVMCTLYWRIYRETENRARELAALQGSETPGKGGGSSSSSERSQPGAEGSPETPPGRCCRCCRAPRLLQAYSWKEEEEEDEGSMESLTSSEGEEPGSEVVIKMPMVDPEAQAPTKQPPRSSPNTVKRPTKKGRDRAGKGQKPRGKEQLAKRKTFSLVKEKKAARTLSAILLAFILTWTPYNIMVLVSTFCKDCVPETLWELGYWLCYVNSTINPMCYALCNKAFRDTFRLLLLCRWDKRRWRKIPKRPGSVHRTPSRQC

For a further assay, the target named is M1 muscarinic receptor (Homo sapiens (Human), UniProt P11229). Description: M1 GTPγS binding assay.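 For Emax: efficacy relative to carbachol as 100%.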 Type of assay: biochemical. The following applies: for Emax: read-out: M1 GTPγS EFF % AVG; for M1 GTPγS PEC50 AVG: GTPγS binding.
M1 muscarinic receptor, sequence (P11229 whole entry): as above
Assay [2] deals with human M3 muscarinic acetylcholine receptor (Homo sapiens (Human), UniProt P20309). Briefly: R-SAT (Receptor Selection and Amplification) assay, M3. Type of assay: cell-based. The following applies: for Emax: read-out: M3 EFF % AVG; for M3 PEC50 AVG: R-SAT, NIH-3T3 cells. How it is done:
as §1

Assay [3] concerns the target human M2 muscarinic acetylcholine receptor (Homo sapiens (Human), UniProt P08172). Briefly: R-SAT (Receptor Selection and Amplification) assay, M2. It counts as cell-based. The following applies: for M2 PEC50 AVG: R-SAT, NIH-3T3 cells; for Emax: read-out: M2 EFF % AVG. How it is done: as §1

Molecules are shown by their SMILES. pEC50: −log10 of the molar value.

human M2 muscarinic acetylcholine receptor, sequence (P08172 whole entry): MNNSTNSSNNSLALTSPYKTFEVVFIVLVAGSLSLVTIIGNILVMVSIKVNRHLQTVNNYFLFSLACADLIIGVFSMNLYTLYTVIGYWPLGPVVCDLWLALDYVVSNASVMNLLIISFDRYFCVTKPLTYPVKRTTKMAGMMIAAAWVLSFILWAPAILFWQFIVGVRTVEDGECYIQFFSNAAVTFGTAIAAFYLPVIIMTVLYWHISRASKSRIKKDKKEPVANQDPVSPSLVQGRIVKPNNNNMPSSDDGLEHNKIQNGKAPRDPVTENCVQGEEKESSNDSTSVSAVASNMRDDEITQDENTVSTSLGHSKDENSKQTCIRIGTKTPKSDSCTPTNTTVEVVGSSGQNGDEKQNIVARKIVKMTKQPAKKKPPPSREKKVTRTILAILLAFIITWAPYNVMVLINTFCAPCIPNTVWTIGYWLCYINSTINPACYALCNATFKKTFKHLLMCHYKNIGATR
human M3 muscarinic acetylcholine receptor, sequence (P20309 whole entry): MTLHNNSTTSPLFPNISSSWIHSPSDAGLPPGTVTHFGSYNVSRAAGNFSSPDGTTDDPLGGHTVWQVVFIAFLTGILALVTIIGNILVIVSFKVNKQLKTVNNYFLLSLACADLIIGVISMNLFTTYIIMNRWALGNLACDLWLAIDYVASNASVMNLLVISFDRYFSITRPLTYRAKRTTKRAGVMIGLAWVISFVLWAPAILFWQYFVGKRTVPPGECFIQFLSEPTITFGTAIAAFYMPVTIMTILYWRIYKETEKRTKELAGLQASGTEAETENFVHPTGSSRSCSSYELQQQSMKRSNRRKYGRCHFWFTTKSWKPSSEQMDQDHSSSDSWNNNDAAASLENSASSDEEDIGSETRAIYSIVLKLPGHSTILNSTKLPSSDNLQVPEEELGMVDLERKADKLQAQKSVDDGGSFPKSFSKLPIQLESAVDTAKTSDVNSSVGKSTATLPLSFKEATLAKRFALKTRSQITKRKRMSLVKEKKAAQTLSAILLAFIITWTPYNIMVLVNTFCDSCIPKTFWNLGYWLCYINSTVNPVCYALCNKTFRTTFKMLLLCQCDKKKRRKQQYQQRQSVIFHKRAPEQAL

On to `C[C@H](CN1[C@@H]2CC[C@H]1C[C@@H](OC1CCCC1)C2)Cn1ncc2ccccc21` [Compound 314s, 1-((R)-3-((1R,3R,58)-3-(cyclopentyloxy)-8-azabicyclo[3.2.1]octan-8-yl)-2-methylpropyl)-1H-indazole], for which, in assay [1], the “M1 PEC50 AVG” value amounted to 8.4 and the Emax is 104%. Moreover, on M1 muscarinic receptor, the pEC50 was 7.60 and the Emax was found to be 48%. Also, in assay [2], the Emax worked out at 8%. For the same molecule, in assay [3], the “M2 PEC50 AVG” value worked out at 7.3 and the Emax was found to be 74%.

Turning to `COC/C=C1\C[C@H]2CC[C@@H](C1)N2C[C@@H](C)Cn1ncc2ccccc21` [Compound 320s, 1-((R)-3-((1R,3R,58)-3-(2-methoxyethylidene)-8-azabicyclo[3.2.1]octan-8-yl)-2-methylpropyl)-1H-indazole], in assay [1], the “M1 PEC50 AVG” value is recorded as 8.2 and the Emax stood at 109%. In addition, on M1 muscarinic receptor, the pEC50 is 6.80 and the Emax was determined as 60%. In assay [2], the Emax amounted to 8%. Moreover, in assay [3], the “M2 PEC50 AVG” value is 7.2 and the Emax came to 90%.

Take `Cc1ccc2c(cnn2C[C@H](C)CN2[C@@H]3CC[C@H]2C[C@@H](OCC2CC2)C3)c1` [Compound 321, 1-((R)-3-(3-(cyclopropylmethoxy)-8-aza-bicyclo[3.2.1]octan-8-yl)-2-methylpropyl)-5-methyl-1H-indazole]: in assay [1], the “M1 PEC50 AVG” value came out at 7.9 and the Emax is 75%. For the same molecule, on M1 muscarinic receptor, the pEC50 was 7.20 and the Emax came out at 56%. In addition, the Emax in assay [2] was determined as 3%. For the same molecule, in assay [3], the “M2 PEC50 AVG” value amounted to 8.1 and the Emax was 19%.

In the case of `CCOCC[C@H]1C[C@H]2CC[C@@H](C1)N2C[C@@H](C)Cn1ncc2ccccc21` [Compound 323, 1-((R)-3-((1R,3R,5S)-3-(2-ethoxyethyl)-8-azabicyclo[3.2.1]octan-8-yl)-2-methylpropyl)-1H-indazole], in assay [1], the “M1 PEC50 AVG” value is 9.1 and the Emax is 66%. At M1 muscarinic receptor, the pEC50 was 7.70 and the Emax was found to be 32%. For the same molecule, the Emax in assay [2] was -2%. In addition, in assay [3], the “M2 PEC50 AVG” value is recorded as 7.8 and the Emax amounted to 34%.

`C[C@H](CN1[C@@H]2CC[C@H]1C[C@@H](OCC1CC1)C2)Cn1ncc2ccc(F)cc21` [Compound 307, 1-((R)-3-(3-(Cyclopropylmethoxy)-8-aza-bicyclo[3.2.1]octan-8-yl)-2-methylpropyl)-6-fluoro-1H-indazole]: in assay [1], the “M1 PEC50 AVG” value amounted to 9.5 and the Emax is 156%. Further, at M1 muscarinic receptor, the “M1 GTPγS PEC50 AVG” value is reported as 8.0 and the Emax turned out to be 63%. Besides, in assay [2], the “M3 PEC50 AVG” value came out at 7.3 and the Emax amounted to 19%. Besides, in assay [3], the “M2 PEC50 AVG” value amounted to 7.7 and the Emax worked out at 198%.

As to `C=CCO[C@H]1C[C@H]2CC[C@@H](C1)N2C[C@@H](C)Cn1ncc2ccc(F)cc21` [Compound 308, 1-((R)-3-(3-(Allyloxy)-8-aza-bicyclo[3.2.1]octan-8-yl)-2-methylpropyl)-6-fluoro-1H-indazole], in assay [1], the “M1 PEC50 AVG” value is recorded as 8.9 and the Emax came to 131%. On M1 muscarinic receptor, the “M1 GTPγS PEC50 AVG” value is reported as 7.1 and the Emax was 66%. For the same molecule, in assay [2], the “M3 PEC50 AVG” value is listed as 6.3 and the Emax turned out to be 18%. For the same molecule, in assay [3], the “M2 PEC50 AVG” value is given as 7.4 and the Emax worked out at 152%.

Regarding `CCCO[C@H]1C[C@H]2CC[C@@H](C1)N2C[C@@H](C)Cn1ncc2ccccc21` [Compound 319s, 1-((R)-3-(3-(propoxy)-8-aza-bicyclo[3.2.1]octan-8-yl)-2-methylpropyl)-1H-indazole], in assay [1], the “M1 PEC50 AVG” value is on record as 8.1 and the Emax came to 111%. At M1 muscarinic receptor, the pEC50 is 6.70 and the Emax worked out at 63%. Also, the Emax in assay [2] was found to be 3%. In addition, in assay [3], the “M2 PEC50 AVG” value is on record as 7.5 and the Emax is 102%.

As for `COCC[C@H]1C[C@H]2CC[C@@H](C1)N2C[C@@H](C)Cn1ncc2ccc(F)cc21` [Compound 309, 1-((R)-3-(3-(2-Methoxyethyl)-8-aza-bicyclo[3.2.1]octan-8-yl)-2-methylpropyl)-6-fluoro-1H-indazole], in assay [1], the “M1 PEC50 AVG” value is 9.4 and the Emax was found to be 123%. For the same molecule, at M1 muscarinic receptor, the “M1 GTPγS PEC50 AVG” value was determined as 7.3 and the Emax is 53%. For the same molecule, in assay [2], the “M3 PEC50 AVG” value is on record as 6.9 and the Emax turned out to be 18%. Moreover, in assay [3], the “M2 PEC50 AVG” value turned out to be 7.5 and the Emax stood at 176%.

Regarding `Cc1cccc2cnn(C[C@H](C)CN3[C@@H]4CC[C@H]3C[C@@H](OCC3CC3)C4)c12` [Compound 317, 1-((R)-3-(3-(cyclopropylmethoxy)-8-aza-bicyclo[3.2.1]octan-8-yl)-2-methylpropyl)-7-methyl-1H-indazole], the “M1 PEC50 AVG” value in assay [1] was 7.6. In addition, the Emax in assay [1] amounted to 81%; at M1 muscarinic receptor, 85%; in assay [2], 2%; in assay [3] it was 46%. Besides, the pEC50 on M1 muscarinic receptor was 7.00. Moreover, the “M2 PEC50 AVG” value in assay [3] is 6.9.

Regarding `COCC[C@H]1C[C@H]2CC[C@@H](C1)N2C[C@@H](C)Cn1ncc2ccc(OC)cc21` [Compound 313, 1-((R)-3-((1R,3R,58)-3-(2-methoxyethyl)-8-azabicyclo[3.2.1]octan-8-yl)-2-methylpropyl)-6-methoxy-1H-indazole], the “M1 PEC50 AVG” value in assay [1] is 8.2. In addition, the Emax in assay [1] turned out to be 116%; at M1 muscarinic receptor it was 49%; in assay [2] it was 7%; in assay [3] it was 111%. The same molecule had a pEC50 on M1 muscarinic receptor of 7.40. Further, the “M2 PEC50 AVG” value in assay [3] was 7.3.

For `Cc1nn(C[C@H](C)CN2[C@@H]3CC[C@H]2C[C@@H](OCC2CC2)C3)c2ccccc12` [Compound 316, 1-((R)-3-(3-(cyclopropylmethoxy)-8-aza-bicyclo[3.2.1]octan-8-yl)-2-methylpropyl)-3-methyl-1H-indazole], in assay [1], the “M1 PEC50 AVG” value worked out at 7.9 and the Emax was found to be 78%. Also, at M1 muscarinic receptor, the pEC50 was 7.50 and the Emax worked out at 88%. The Emax in assay [2] is 5%. In addition, in assay [3], the “M2 PEC50 AVG” value was 6.6 and the Emax amounted to 81%.

Consider `C#CCO[C@H]1C[C@H]2CC[C@@H](C1)N2C[C@@H](C)Cn1ncc2ccccc21` [Compound 318s, 1-((R)-3-((1R,3R,5S)-3-(prop-2-ynyloxy)-8-azabicyclo[3.2.1]octan-8-yl)-2-methylpropyl)-1H-indazole], for which, in assay [1], the “M1 PEC50 AVG” value was determined as 8.0 and the Emax was found to be 122%. Moreover, at M1 muscarinic receptor, the pEC50 was 7.10 and the Emax turned out to be 66%. The Emax in assay [2] was 8%. For the same molecule, in assay [3], the “M2 PEC50 AVG” value was determined as 7.2 and the Emax amounted to 92%.

Regarding `C#CCO[C@H]1C[C@H]2CC[C@@H](C1)N2C[C@@H](C)Cn1ncc2ccc(OC)cc21` [Compound 322s, 1-((R)-3-((1R,3R,5S)-3-(prop-2-ynyloxy)-8-azabicyclo[3.2.1]octan-8-yl)-2-methylpropyl)-6-methoxy-1H-indazole], in assay [1], the “M1 PEC50 AVG” value amounted to 8.0 and the Emax worked out at 86%. Also, on M1 muscarinic receptor, the pEC50 is 7.10 and the Emax is 42%. In addition, the Emax in assay [2] amounted to 5%. In addition, in assay [3], the “M2 PEC50 AVG” value amounted to 7.1 and the Emax is 44%.

Consider `C[C@H](CN1[C@@H]2CC[C@H]1C[C@@H](OCC1CCC1)C2)Cn1ncc2ccccc21` [Compound 315, 1-((R)-3-(3-(cyclobutylmethoxy)-8-aza-bicyclo[3.2.1]octan-8-yl)-2-methylpropyl)-1H-indazole], for which, in assay [1], the “M1 PEC50 AVG” value was 8.1 and the Emax worked out at 100%. Moreover, on M1 muscarinic receptor, the pEC50 was 7.30 and the Emax amounted to 36%. Also, in assay [2], the Emax amounted to 5%. In addition, in assay [3], the “M2 PEC50 AVG” value is on record as 7.3 and the Emax amounted to 47%.

In the case of `Cc1ccc2cnn(C[C@H](C)CN3[C@@H]4CC[C@H]3C[C@@H](OCC3CC3)C4)c2c1` [Compound 304, 1-((R)-3-(3-(Cyclopropylmethoxy)-8-aza-bicyclo[3.2.1]octan-8-yl)-2-methylpropyl)-6-methyl-1H-indazole], in assay [1], the “M1 PEC50 AVG” value is on record as 8.9 and the Emax was determined as 110%. For the same molecule, at M1 muscarinic receptor, the “M1 GTPγS PEC50 AVG” value was determined as 8.3 and the Emax turned out to be 67%. In assay [2], the “M3 PEC50 AVG” value is 7.4 and the Emax worked out at 9%. In assay [3], the “M2 PEC50 AVG” value came out at 7.6 and the Emax came out at 108%.

As to `COc1ccc2cnn(C[C@H](C)CN3[C@@H]4CC[C@H]3C[C@@H](OCC3CC3)C4)c2c1` [Compound 311], the Emax in assay [1] came out at 120%; on M1 muscarinic receptor, 55%; in assay [2] it was 2%; in assay [3] it was 65%. This molecule also gave a negative-log EC50 (pEC50) at M1 muscarinic receptor of 7.30.

Take `CCOCC[C@H]1C[C@H]2CC[C@@H](C1)N2C[C@@H](C)Cn1ncc2ccc(C)cc21` [Compound 324, 1-((R)-3-((1R,3R,5S)-3-(2-ethoxyethyl)-8-azabicyclo[3.2.1]octan-8-yl)-2-methylpropyl)-6-methyl-1H-indazole]: in assay [1], the “M1 PEC50 AVG” value stood at 9.1 and the Emax was determined as 82%. Also, at M1 muscarinic receptor, the pEC50 was 8.20 and the Emax came out at 31%. Moreover, the Emax in assay [2] was found to be 17%. In assay [3], the “M2 PEC50 AVG” value turned out to be 7.9 and the Emax worked out at 45%.
